Drawing on ChEMBL document CHEMBL1158882, “Yardenone A and B: new cytotoxic triterpenes from the Indian Ocean sponge Axinella cf. bidderi” (J Nat Prod, 2003), this text covers IC50 and Activity for 4 compounds.

Assay [1] is described as follows: (§1) Cytotoxicity against human NSCLC-N6-L16 cells. It is filed as functional, cell-based.
The species entered for another assay is Homo sapiens. Described as §1. It is filed as functional, cell-based.

pIC50: −log10 of the molar value. Active and inactive are the calls of the source. The calls are words filed in the database; no cut-off is given here.

By pIC50 is commonly meant −log10 of the IC50, conventionally taken in molar units.

For `CC1=C(CC[C@H]2[C@]3(C)CCC(=O)C(C)(C)O[C@H]3CC[C@]2(C)O)[C@@]2(C)CCC(=O)C(C)(C)C2=C(O)C1=O` [SODWANONE A], the pIC50 in assay [1] was 4.92.

As to `C[C@H]1CC[C@@H]2OC(C)(C)C(=O)CC[C@@]2(C)[C@]12C[C@H](O)[C@@H]([C@@]1(C)CC[C@@H]3OC(C)(C)C(=O)CC[C@]31C)O2` [YARDENONE A], the pIC50 in assay [1] is less than 4.22.

On to `C[C@H]1CC[C@@H]2OC(C)(C)C(=O)CC[C@@]2(C)[C@]12CC[C@@H]([C@@]1(C)CC[C@@H]3OC(C)(C)C(=O)CC[C@]31C)O2`, for which the result in the assay listed under Homo sapiens was inactive. Take `C[C@H]1CC[C@@H]2OC(C)(C)[C@H](O)CC[C@@]2(C)[C@]12C[C@H](O)[C@@H]([C@@]1(C)CC[C@@H]3OC(C)(C)C(=O)CC[C@]31C)O2` [YARDENONE B]: the pIC50 in assay [1] was less than 4.51.
